This is an account of results in patent publication US11014912B2, “Cyanopyrrolidine derivatives with activity as inhibitors of USP30” (MISSION THERAPEUTICS LIMITED, priority 2016, dated 2021).

Each structure is given as a SMILES string.

The target in this experiment is USP30 (Homo sapiens (Human), UniProt Q70CQ3). In words: USP30 biochemical IC50 assay. The conditions noted are these: fluorescence polarisation, TAMRA labelled peptide linked to ubiquitin substrate; enzyme and compound incubated 30 min at room temp; read after 2 h; read-out: IC50 range. The method, then: USP30 Biochemical IC50 Assay
USP30, sequence (Q70CQ3 57-517): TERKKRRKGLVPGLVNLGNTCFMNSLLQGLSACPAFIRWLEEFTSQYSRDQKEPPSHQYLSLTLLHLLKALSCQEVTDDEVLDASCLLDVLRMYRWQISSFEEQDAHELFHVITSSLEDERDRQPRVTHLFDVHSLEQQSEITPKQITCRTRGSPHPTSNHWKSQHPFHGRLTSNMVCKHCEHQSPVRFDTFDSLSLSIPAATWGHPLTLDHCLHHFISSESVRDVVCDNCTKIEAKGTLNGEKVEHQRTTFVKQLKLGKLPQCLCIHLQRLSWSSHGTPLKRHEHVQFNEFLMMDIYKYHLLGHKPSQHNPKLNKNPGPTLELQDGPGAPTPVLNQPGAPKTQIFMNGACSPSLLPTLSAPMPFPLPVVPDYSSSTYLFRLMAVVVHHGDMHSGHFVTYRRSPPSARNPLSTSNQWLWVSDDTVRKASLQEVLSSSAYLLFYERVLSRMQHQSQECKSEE
Dilution plates were prepared at 21 times the final concentration (2100 μM for a final concentration of 100 μM) in 50% DMSO in a 96-well polypropylene V-bottom plate (Greiner #651201). A typical 8-point dilution series would be 100, 30, 10, 3, 1, 0.3, 0.1, 0.03 μM final. Reactions were performed in duplicate in black 384 well plates (small volume, Greiner 784076) in a final reaction volume of 21 μl. Either 1 μl of 50% DMSO or diluted compound was added to the plate. USP30 was diluted in reaction buffer (40 mM Tris, pH 7.5, 0.005% Tween 20, 0.5 mg/ml BSA, 5 mM beta-mercaptoethanol) to the equivalent of 0.05 μl/well and 10 μl of diluted USP30 was added to the compound. Enzyme and compound were incubated for 30 min at room temp. Reactions were initiated by the addition of 50 nM of TAMRA labelled peptide linked to ubiquitin via an iso-peptide bond as fluorescence polarisation substrate. Reactions were read immediately after addition of substrate and following a 2 h incubation at room temperature. Readings were performed on a Pherastar Plus (BMG Labtech). A Excitation 540 nm; A Emission 590 nm.
Regarding `CC(C(=O)N1CC(c2ccc(C#N)cc2)C1)[C@@H]1CCN(C#N)C1` (single isomer, unassigned) [Example 61], the IC50 (in general, the midpoint of a concentration-inhibition curve) was in the range of 1 to 10 µM.

For the compound `CC(C(=O)N1CC(c2ccc(C#N)cc2)C1)[C@@H]1CCN(C#N)C1` (single isomer, unassigned) [Example 62], the IC50 fell in the range of 0.1 to 1 µM.

As for `COc1ccc(C2CN(C(=O)CC3CCN(C#N)C3)C2)cc1` (stereo not drawn) [Example 1, 3-(2-(3-(4-Methoxyphenyl)azetidin-1-yl)-2-oxoethyl)pyrrolidine-1-carbonitrile], the IC50 was in the range of 0.1 to 1 µM.

`N#CN1CCC(CC(=O)Nc2cccc(Cl)c2)C1` (stereo not drawn) [Example 2, N-(3-Chlorophenyl)-2-(1-cyanopyrrolidin-3-yl)acetamide]: the concentration for half-maximal inhibition (IC50) was 0.1 to 1 µM.

Take `COc1ccc2nc(NC(=O)CC3CCN(C#N)C3)sc2c1` (stereo not drawn) [Example 3, 2-(1-Cyanopyrrolidin-3-yl)-N-(6-methoxybenzo[d]thiazol-2-yl)acetamide]: the IC50 was 0.1 to 1 µM.

In the case of `N#CN1CCC(CC(=O)Nc2ccc(C(F)(F)F)nc2)C1` (stereo not drawn) [Example 4, 2-(1-Cyanopyrrolidin-3-yl)-N-(6-(trifluoromethyl)pyridin-3-yl)acetamide], the IC50 lay in the range of 1 to 10 µM.

`N#CN1CCC(CC(=O)Nc2nc3ccc(Cl)cc3s2)C1` (stereo not drawn) [Example 5, N-(6-Chlorobenzo[d]thiazol-2-yl)-2-(1-cyanopyrrolidin-3-yl)acetamide]: the concentration for half-maximal inhibition (IC50) fell in the range of 0.1 to 1 µM.

Turning to `N#CN1CCC(CC(=O)Nc2cc(-c3ccccc3)no2)C1` (stereo not drawn) [Example 6, 2-(1-Cyanopyrrolidin-3-yl)-N-(3-phenylisoxazol-5-yl)acetamide], the IC50 lay in the range of 0.1 to 1 µM.

Regarding `N#CN1CCC(CC(=O)Nc2nc3cc(Cl)ccc3o2)C1` (stereo not drawn) [Example 8, N-(5-Chlorobenzo[d]oxazol-2-yl)-2-(1-cyanopyrrolidin-3-yl)acetamide], the IC50 was 0.1 to 1 µM.

For the compound `N#CN1CCC(CC(=O)Nc2ccc(Cl)c(Cl)c2)C1` (stereo not drawn) [Example 9, 2-(1-Cyanopyrrolidin-3-yl)-N-(3,4-dichlorophenyl)acetamide], the IC50 lay within 0.1 to 1 µM.

In the case of `N#CN1CCC(CC(=O)Nc2ncc(-c3ccccc3)s2)C1` (stereo not drawn) [Example 10, 2-(1-Cyanopyrrolidin-3-yl)-N-(5-phenylthiazol-2-yl)acetamide], the IC50 lay within 0.1 to 1 µM.

Consider `N#CN1CCC(CC(=O)NCCc2ccccc2)C1` (stereo not drawn) [Example 11, 2-(1-Cyanopyrrolidin-3-yl)-N-phenethylacetamide], for which the IC50 was 1 to 10 µM.

On to `N#CN1CCC(CC(=O)N2CC(Oc3ccccc3)C2)C1` (stereo not drawn) [Example 12, 3-(2-Oxo-2-(3-phenoxyazetidin-1-yl)ethyl)pyrrolidine-1-carbonitrile], for which the IC50 is 0.1 to 1 µM.

In the case of `COc1cccc(C2CN(C(=O)CC3CCN(C#N)C3)C2)c1` (stereo not drawn) [Example 13, 3-(2-(3-(3-Methoxyphenyl)azetidin-1-yl)-2-oxoethyl)pyrrolidine-1-carbonitrile], the IC50 fell in the range of 0.1 to 1 µM.

For the compound `Cc1cc(C2CN(C(=O)CC3CCN(C#N)C3)C2)ccn1` (stereo not drawn) [Example 15, 3-(2-(3-(2-Methylpyridin-4-yl)azetidin-1-yl)-2-oxoethyl)pyrrolidine-1-carbonitrile], the IC50 lay in the range of 1 to 10 µM.

Turning to `Cc1noc(C)c1-c1ccc2nc(NC(=O)CC3CCN(C#N)C3)cn2c1` (stereo not drawn) [Example 16, 2-(1-Cyanopyrrolidin-3-yl)-N-(6-(3,5-dimethylisoxazol-4-yl)imidazo[1,2-a]pyridin-2-yl)acetamide], the IC50 was 1 to 10 µM.

In the case of `COc1ccc(C2CN(C(=O)C=C3CCN(C#N)C3)C2)cc1` [Example 17, 3-(2-(3-(4-Methoxyphenyl)azetidin-1-yl)-2-oxoethylidene)pyrrolidine-1-carbonitrile], the IC50 lay in the range of 0.1 to 1 µM.

Consider `N#CN1CCC(=CC(=O)N2CC(c3ccccc3)C2)C1` [Example 18, 3-(2-Oxo-2-(3-phenylazetidin-1-yl)ethylidene)pyrrolidine-1-carbonitrile], for which the IC50 is 0.1 to 1 µM.

`Cc1ccc(NC(=O)C=C2CCN(C#N)C2)cc1Cl` [Example 19, N-(3-Chloro-4-methylphenyl)-2-(1-cyanopyrrolidin-3-ylidene)acetamide]: the IC50 is 0.1 to 1 µM.

With `N#CN1CCC(=CC(=O)Nc2ccc(Cl)c(C(F)(F)F)c2)C1` [Example 20, N-(4-Chloro-3-(trifluoromethyl)phenyl)-2-(1-cyanopyrrolidin-3-ylidene)acetamide], the IC50 lay in the range of 0.1 to 1 µM.

On to `N#CN1CCC(=CC(=O)Nc2ccc3ncsc3c2)C1` [Example 21, N-(Benzo[d]thiazol-6-yl)-2-(1-cyanopyrrolidin-3-ylidene)acetamide], for which the IC50 was in the range of 1 to 10 µM.

As to `N#CN1CCC(=CC(=O)Nc2ccc(Oc3ccccc3)cc2)C1` [Example 22, 2-(1-Cyanopyrrolidin-3-ylidene)-N-(4-phenoxyphenyl)acetamide], the IC50 was in the range of 0.01 to 0.1 µM.

Take `N#CN1CCC(=CC(=O)Nc2cnc3ccccc3c2)C1` [Example 23, 2-(1-Cyanopyrrolidin-3-ylidene)-N-(quinolin-3-yl)acetamide]: the IC50 fell in the range of 0.1 to 1 µM.

On to `CN(Cc1ccc2ncccc2c1)C(=O)C=C1CCN(C#N)C1` [Example 24, 2-(1-Cyanopyrrolidin-3-ylidene)-N-methyl-N-(quinolin-6-ylmethyl)acetamide], for which the IC50 lay within 0.1 to 1 µM.

Consider `CN(Cc1cc(-c2ccccc2)on1)C(=O)C=C1CCN(C#N)C1` [Example 25, 2-(1-Cyanopyrrolidin-3-ylidene)-N-methyl-N-((5-phenylisoxazol-3-yl)methyl)acetamide], for which the IC50 is 0.1 to 1 µM.

On to `CN(Cc1cccc(-c2ccncc2)c1)C(=O)C=C1CCN(C#N)C1` [Example 26, 2-(1-Cyanopyrrolidin-3-ylidene)-N-methyl-N-(3-(pyridin-4-yl)benzyl)acetamide], for which the IC50 was in the range of 0.1 to 1 µM.

Turning to `CN(Cc1cc(-c2ccccc2)no1)C(=O)C=C1CCN(C#N)C1` [Example 27, 2-(1-Cyanopyrrolidin-3-ylidene)-N-methyl-N-((3-phenylisoxazol-5-yl)methyl)acetamide], the IC50 lay in the range of 0.1 to 1 µM.

For the compound `CN(Cc1ccc(N2CCCC2)cc1)C(=O)C=C1CCN(C#N)C1` [Example 28, 2-(1-Cyanopyrrolidin-3-ylidene)-N-methyl-N-(4-(pyrrolidin-1-yl)benzyl)acetamide], the IC50 was in the range of 0.1 to 1 µM.

As to `CN(Cc1cc(-c2ccccc2)[nH]n1)C(=O)C=C1CCN(C#N)C1` [Example 30, 2-(1-Cyanopyrrolidin-3-ylidene)-N-methyl-N-((5-phenyl-1H-pyrazol-3-yl)methyl)acetamide], the IC50 is 0.1 to 1 µM.

On to `N#CN1CCC(=CC(=O)NCc2cc(C(F)(F)F)ccc2F)C1` [Example 31, 2-(1-Cyanopyrrolidin-3-ylidene)-N-(2-fluoro-5-(trifluoromethyl)benzyl)acetamide], for which the IC50 is 1 to 10 µM.

Regarding `CN(C(=O)C=C1CCN(C#N)C1)c1nc2ccccc2s1` [Example 32, N-(Benzo[d]thiazol-2-yl)-2-(1-cyanopyrrolidin-3-ylidene)-N-methylacetamide], the IC50 lay within 0.1 to 1 µM.

Turning to `CN(Cc1ccc(Cl)c(Cl)c1)C(=O)C=C1CCN(C#N)C1` [Example 33, 2-(1-Cyanopyrrolidin-3-ylidene)-N-(3,4-dichlorobenzyl)-N-methylacetamide], the IC50 is 0.1 to 1 µM.

In the case of `N#CN1CC[C@@H](CC(=O)Nc2cc(-c3ccc(Cl)cc3)no2)C1` [Example 34, (S)—N-(3-(4-Chlorophenyl)isoxazol-5-yl)-2-(1-cyanopyrrolidin-3-yl)acetamide], the IC50 was 0.1 to 1 µM.
